Results reported in US7893299B2, “Interleukin-1 and tumor necrosis factor-αmodulators; syntheses of such modulators and methods of using such modulators” (Nereus Pharmaceuticals, Inc., priority 2005, dated 2011).
Like-named read-outs stand apart in the source and are kept apart here.

How the values were obtained:
[1] = test system: RPMI 8226 (MM); experiment: 48 hr cytotoxicity, RPMI 8226; format: cell-based, human; details: Homo sapiens, RPMI-8226, 48 h
Procedure: (§1) Human colon adenocarcinoma HT-29 (ATCC# HTB-38), prostate adenocarcinoma PC-3 (ATCC# CRL-1435), breast adenocarcinoma MDA-MB231 (ATCC# HTB-26), Multiple Myeloma RPMI 8226 (ATCC# CCL-155) and U266 (ATCC # TIB-196) cell lines and human normal fibroblast CCD-27sk (ATCC# CRL-1475) were all purchased from ATCC (Manassas, Va.). The cells were maintained in their respective ATCC recommended culture media at 37° C., 5% CO2 and 95% humidified air.
(§2) The cytotoxicity assays were performed by seeding individual cell lines at appropriate density in the 96 well flat-bottomed plates and allowed to attach for 24 hours at 37° C., 5% CO2 and 95% humidified air (RPMI 8226 and U266 cells were plated in 96 well plates on the day of compound addition). Serially diluted NPI-1387 was added in triplicate to cells at concentrations ranging from 160 nM to 20 μM. Final concentration of 0.25% (v/v) DMSO was used as the vehicle control. Cell viability was assessed 48 hours later by measuring the fluorescence of the reduction product of Resazurin by a Fusion microplate fluorometer (PerkinElmer) with λex=535 nm and λem=590 nm filters. The IC50 values (the drug concentration at which 50% of the maximal observed cytotoxicity is established) were calculated in XLFit 3.0 or XLFit 4.0 (ID Business Solutions Ltd) using a sigmoidal dose response model.

[2] = test system: U266 (MM); experiment: 48 hr cytotoxicity, U266; format: cell-based, human; details: Homo sapiens, U-266, 48 h
Procedure: (§3) B16-F10 (ATCC; CRL-6475), DU 145 (ATCC; HTB-81), HEK293 (ATCC; CRL-1573), HT-29 (ATCC; HTB-38), LoVo (ATCC; CCL-229), MDA-MB-231 (ATCC; HTB-26), MIA PaCa-2 (ATCC; CRL-1420), NCI-H292 (ATCC; CRL-1848), OVCAR-3 (ATCC, HTB-161), PANC-1 (ATCC; CRL-1469), PC-3 (ATCC; CRL-1435), RPMI 8226 (ATCC; CCL-155) and U266 (ATCC; TIB-196) are maintained in appropriate culture media. The cells are cultured in an incubator at 37° C. in 5% CO2 and 95% humidified air.
(§4) For cell growth inhibition assays, B16-F10, DU 145, HEK293, HT-29, LoVo, MDA-MB-231, MIA PaCa-2, NCI-H292, OVCAR-3, PANC-1, PC-3, RPMI 8226 and U266 cells are seeded at 1.25×10^3, 5×10^3, 1.5×10^4, 5×10^3, 5×10^3, 1×10^4, 2×10^3, 4×10^3, 1×10^4, 7.5×10^3, 5×10^3, 2×10^4, 2.5×10^4 cells/well respectively in 90 μl complete media into Corning 3904 black-walled, clear-bottom tissue culture plates. 20 mM stock solutions of compounds of Formula II, IIA, and IIB are prepared in 100% DMSO, aliquoted and stored at −80° C. Compounds of Formula II, IIA, and IIB are serially diluted and added in triplicate to the test wells resulting in final concentrations ranging from of 20 μM to 0.2 pM. […]
(§5) Following 48 hours of drug exposure, 10 μl of 0.2 mg/ml resazurin (obtained from Sigma-Aldrich Chemical Co.) in Mg^2+, Ca^2+ free phosphate buffered saline is added to each well and the plates are returned to the incubator for 3-6 hours. Since living cells metabolize Resazurin, the fluorescence of the reduction product of Resazurin is measured using a Fusion microplate fluorometer (Packard Bioscience) with λex=535 nm and λem=590 nm filters. […]
(§6) The cytotoxicity assays were performed by seeding individual cell lines at appropriate density in the 96 well flat-bottomed plates and allowed to attach for 24 hours at 37° C., 5% CO2 and 95% humidified air (RPMI 8226 and U266 cells were plated in 96 well plates on the day of compound addition). […] Cell viability was assessed 48 hours later by measuring the fluorescence of the reduction product of Resazurin by a Fusion microplate fluorometer (PerkinElmer) with λex=535 nm and λem=590 nm filters. […]

[3] = test system: MDA-MB-231 (Breast); experiment: 48 hr cytotoxicity, MDA-MB-231; format: cell-based, human; details: Homo sapiens, MDA-MB-231, 48 h
Procedure: as §3, §4, §5, §6

[4] = test system: PC3 (Prostate); experiment: 48 hr cytotoxicity, PC-3; format: cell-based, human; details: Homo sapiens, 48 h
Procedure: as §3, §4, §5, §6

[5] = test system: HT-29 (Colon); experiment: 48 hr cytotoxicity, HT-29; format: cell-based, human; details: Homo sapiens, HT-29, 48 h
Procedure: as §1, §2

[6] = test system: IL-6 or IFN-γ production; details: under the same conditions; cited from earlier work
[7] = mice, cited from earlier work; for toxicity (in words): mice and rats
[8] = rat, in vivo; cited from earlier work
[9] = test system: TNF-α and IL-1 production; details: approximately 0.1 to approximately 1.0 microgram/ml for 48 hours; cited from earlier work
[10] = test system: silicosis (chronic lung inflammation) and cirrhosis (liver inflammation and hepatic fibrosis); details: mice with silicosis and cirrhosis; cited from earlier work
[11] = test system: Panc1 and HS766T; experiment: TRAIL resistance of human pancreatic cancer cell lines; format: cell-based
Description: (§7) Novel diterpene inhibitors of NFκB derived from acanthoic acid (NPI-1342 (Formula IIB-a1) and NPI-1387; compound 24 under scheme 4 above) show measurable effects in human pancreatic cancer cell lines in vitro. Seven of the nine cell lines were moderately sensitive to apoptosis induced by death receptor ligand Tumor Necrosis Factor (TNF) related apoptosis-inducing ligand (TRAIL). […] Specific silencing of NFkB/p65 expression mimicked these effects. Furthermore, combination treatment of Salinosporamide A and either NPI-1342 or NPI-1387 led to induction of apoptosis as measured by PI FACS analysis. Specifically, levels of DNA fragmentation increased from 4% to 50% in HS766T cells and from 4% to 52% in Panc1 cells. The inhibitory effects of NPI-1342, NPI-1387 on NFκB were evaluated by Electromobility Shift Assays and confirmed by confocal microscopy.

[12] = test system: Panc1 cells; experiment: apoptosis by PI FACS analysis, Panc1; format: cell-based, human; details: combination treatment with Salinosporamide A, increased from 4%
Description: as §7

[13] = test system: HS766T cells; experiment: apoptosis by PI FACS analysis, HS766T; format: cell-based, human; details: combination treatment with Salinosporamide A, increased from 4%
Description: as §7

`C=CC(=O)[C@]1(C)CCC[C@@]2(C)C3CCC4C[C@@]3(CCC21)CC4=C` (stereo partly drawn) [NPI-1388] showed an IC50 [1] of 4.1 ± 1.1 µM, an IC50 [2] of 8.6 ± 6.4 µM and an IC50 [3] of 14 ± 5 µM. For the same compound, the IC50 [4] was 10 ± 3 µM and the IC50 [5] was 17 ± 4 µM.

In the case of `C=C[C@@]1(C)CC=C2[C@@H](CC[C@@H]3[C@](C)(C(=O)O)CCC[C@@]23C)C1` [Formula (I), acanthoic acid], the “production of IL-6 or IFN-γ” value [6] is given as “not affected”, the LD ([7]; orally) is given as > 300 mg/100 g of body weight and the “toxicity (in words)” value [7] is given as “minimal toxicity”. For the same compound, the “toxicity (in words)” value ([7]; listed as Compound 1) was “very little toxicity”, the “minimum lethal dose (MLD)” value [8] was 1000 mg/kg and the “inhibition of the TNF-α and IL-1 production” value [9] was “approximately 90%”. The “histologic analysis: fibrotic granulomas and cirrotic liver cells” value [10] was “substantial reduction of fibrotic granulomas and a remarkable recovery of the cirrotic liver cells”.

For `C=C[C@@]1(C)CCC=C2[C@H]1CC[C@@H]1[C@](C)(C(=O)NC3CCCCC3)CCC[C@@]21C` (stereo in doubt) [Formula (IIB-A1), N-Cyclohexylamide Derivative of TTL], the TRAIL resistance [11] was “reversed TRAIL resistance”, the “levels of DNA fragmentation” value [12] was 52% and the “levels of DNA fragmentation” value [13] was 50%.
